For 30 compounds, EC50 results are on record in patent publication US9409884B2 (Rigel Pharmaceuticals, Inc., priority 2012, dated 2016).

The target in one assay is AMPK. Nature of the assay: AMPK activation, enzyme-linked immunosorbent assay. It is filed as biochemical. The conditions noted are these: Table 8, compounds of Table 1. In outline:
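AMPK activation by test compounds was measured by enzyme-linked immunosorbent assay.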
One may read the EC50 as the concentration at which the effect is half-maximal. `O=C(NC1CCN(Cc2ccc(OC(F)(F)F)cc2)CC1)c1cc2cc(O[C@@H]3CCN(Cc4ccc(Oc5ccc(F)cc5)cc4)C[C@H]3F)ccc2o1` [Compound 1-170, 5-((3,4-trans)-3-fluoro-1-(4-(4-fluorophenoxy)benzyl)piperidin-4-yloxy)-N-(1-(4-(trifluoromethoxy)benzyl)piperidin-4-yl)benzofuran-2-carboxamide] yielded an EC50 below 0.1 µM.

Turning to `O=C(NC1CCN(Cc2ccc(C(F)(F)F)cc2)CC1)c1cc2ccc(OC3CCN(c4ccc(C(F)(F)F)cc4)CC3)cc2o1` [Compound 1-99, N-(1-(4-(trifluoromethyl)benzyl)piperidin-4-yl)-6-(1-(4-(trifluoromethyl)phenyl)piperidin-4-yloxy)benzofuran-2-carboxamide], the EC50 was below 0.1 µM.

Take `CC(C)(C)OC(=O)N1CCC(NC(=O)c2ccnc(OC3CCN(c4ccc(C(F)(F)F)cc4)CC3)c2)CC1` [Compound 1-15, tert-butyl 4-(2-(1-(4-(trifluoromethyl)phenyl)piperidin-4-yloxy)isonicotinamido) piperidine-1-carboxylate]: the EC50 was 1 to 5 µM.

As for `N#Cc1cccc(CN2CCC(NC(=O)c3cc4ccc(OC5CCN(c6ccc(C(F)(F)F)cc6)CC5)cc4s3)CC2)c1` [Compound 1-145, N-(1-(3-cyanobenzyl)piperidin-4-yl)-6-(1-(4-(trifluoromethyl)phenyl)piperidin-4-yloxy)benzo [b]thiophene-2-carboxamide], the EC50 lay within 0.1 to 0.5 µM.

As for `O=C(O)c1ccc(CN2CCC(NC(=O)c3ccc(OC4CCN(c5ccc(C(F)(F)F)cc5)CC4)nc3)CC2)cc1` [Compound 1-46, 4-((4-(6-(1-(4-(trifluoromethyl)phenyl)piperidin-4-yloxy)nicotinamido)piperidin-1-yl)methyl) benzoic acid], the EC50 was in the range of 1 to 5 µM.

The compound `CC(C)(C)OC(=O)N1CCC(NC(=O)c2cc3cc(OC4CCN(c5ccc(C(F)(F)F)cc5)CC4)ccc3s2)CC1` [Compound 1-149, tert-butyl 4-(5-(1-(4-(trifluoromethyl)phenyl)piperidin-4-yloxy)benzo [b]thiophene-2-carboxamido) piperidine-1-carboxylate] showed an EC50 below 0.1 µM.

Take `N#Cc1ccc(CN2CCC(Oc3ccc(S(=O)(=O)NC4CCN(Cc5ccncc5)CC4)cn3)CC2)cc1` [Compound 1-53, 6-(1-(4-cyanobenzyl)piperidin-4-yloxy)-N-(1-(pyridin-4-ylmethyl)piperidin-4-yl)pyridine-3-sulfonamide]: the EC50 lay in the range of 0.1 to 0.5 µM.

As to `CN(C(=O)c1cc2cc(OC3CCN(c4ccc(C(F)(F)F)cc4)CC3)ccc2o1)C1CCN(Cc2ccccn2)CC1` [Compound 1-117, N-methyl-N-(1-(pyridin-2-ylmethyl)piperidin-4-yl)-5-(1-(4-(trifluoromethyl)phenyl)piperidin-4-yloxy)benzofuran-2-carboxamide], the EC50 is below 0.1 µM.

Take `COC(=O)c1ccc(CN2CCC(NC(=O)c3ccc(OC4CCN(c5ccc(C(F)(F)F)cc5)CC4)nc3)CC2)cc1` [Compound 1-45, methyl 4-((4-(6-(1-(4-(trifluoromethyl)phenyl)piperidin-4-yloxy)nicotinamido)piperidin-1-yl)methyl)benzoate]: the EC50 is above 10 µM.

The same assay, now with this note: Table 9, compounds of Table 2.
Take `O=C(NC1CCN(Cc2ccc(C(F)(F)F)cc2)CC1)c1ccc2[nH]c3c(c2c1)CN(Cc1ccc(F)cc1)CC3` [Compound 2-10, N-(1-(4-trifluoromethylbenzyl)piperidin-4-yl)-2-(4-fluorobenzyl)-2,3,4,5-tetrahydro-1H-pyrido[4,3-b]indole-8-carboxamide]: the EC50 lay in the range of 0.5 to 1 µM.

Compound `O=C(NC1CCN(C(=O)c2cccnc2)CC1)c1ccc2[nH]c3c(c2c1)CN(c1ccc(F)cc1)CC3` [Compound 2-40, 2-(4-fluorophenyl)-N-(1-nicotinoylpiperidin-4-yl)-2,3,4,5-tetrahydro-1H-pyrido[4,3-b]indole-8-carboxamide] gave an EC50 above 100 µM.

`O=C(NC1CCN(Cc2ccncc2)CC1)c1ccc2[nH]c3c(c2c1)CN(Cc1ccccc1)CC3` [Compound 2-7, 2-benzyl-N-(1-(pyridin-4-ylmethyl)piperidin-4-yl)-2,3,4,5-tetrahydro-1H-pyrido[4,3-b]indole-8-carboxamide] yielded an EC50 of 5 to 10 µM.

The same assay, now with this note: Table 10, compounds of Table 3.
As to `O=C(NC1CCNCC1)c1nc2ccc(OC3CCN(c4ccc(C(F)(F)F)cc4)CC3)cc2o1` [Compound 3-5, N-(piperidin-4-yl)-6-(1-(4-(trifluoromethyl)phenyl)piperidin-4-yloxy)benzo[d]oxazole-2-carboxamide], the EC50 lay in the range of 10 to 100 µM.

In turn, `N#Cc1ccc(C(=O)N2CCC(NC(=O)c3nc4ccc(OC5CCN(c6ccc(C(F)(F)F)cc6)CC5)cc4o3)CC2)cc1` [Compound 3-6, N-(1-(4-cyanobenzoyl)piperidin-4-yl)-6-(1-(4-(trifluoromethyl)phenyl)piperidin-4-yloxy)benzo[d]oxazole-2-carboxamide] had an EC50 below 0.1 µM.

In turn, `CC(C)(C)OC(=O)N1CCC(NC(=O)c2cnc(OC3CCN(c4ccc(C(F)(F)F)cc4)CC3)cn2)CC1` [Compound 3-19, tert-butyl 4-(5-(1-(4-(trifluoromethyl)phenyl)piperidin-4-yloxy)pyrazine-2-carboxamido)piperidine-1-carboxylate] gave a half-maximal effective concentration (EC50) of 1 to 10 µM.

The same assay, now with this note: Table 12, compounds of Table 5.
In the case of `O=C(c1ccc(OC2CCN(Cc3ccccc3)CC2)cc1)N1CCN(Cc2ccccn2)CC1` [Compound 5-105, (4-(1-benzylpiperidin-4-yloxy)phenyl)(4-(pyridin-2-ylmethyl)piperazin-1-yl)methanone], the EC50 is 10 to 20 µM.

`CC(C)(C)OC(=O)N1CCC(NC(=O)c2ccc(OC3CCN(c4ccc(C(F)(F)F)cc4)CC3)c(F)c2)CC1` [Compound 5-26, tert-butyl 4-(3-fluoro-4-(1-(4-(trifluoromethyl)phenyl)piperidin-4-yloxy)benzamido)piperidine-1-carboxylate] showed an EC50 below 1 µM.

For `COc1ccc(CN2CCC(Oc3ccc(C(=O)NCCCNC(=O)OC(C)(C)C)cc3Cl)CC2)cc1` [Compound 5-97, tert-butyl 3-(3-chloro-4-(1-(4-methoxybenzyl)piperidin-4-yloxy)benzamido) propylcarbamate], the EC50 was in the range of 1 to 10 µM.

In turn, `N#Cc1ccc(CN2CCC(Oc3ccc(C(=O)NC4CCN(Cc5ccccc5)CC4)c(Cl)c3)CC2)cc1` [Compound 5-51, N-(1-benzylpiperidin-4-yl)-2-chloro-4-(1-(4-cyanobenzyl)piperidin-4-yloxy)benzamide] showed an EC50 below 1 µM.

For the compound `O=C(NC1CCN(Cc2ccc(Cl)cc2)CC1)c1ccc(OC2CCN(Cc3ccc(F)c(F)c3)CC2)c(F)c1` [Compound 5-71, N-(1-(4-chlorobenzyl)piperidin-4-yl)-4-(1-(3,4-difluorobenzyl)piperidin-4-yloxy)-3-fluorobenzamide], the EC50 is below 1 µM.

Regarding `CC(C)(C)OC(=O)N1CCC(Oc2ccc(C(=O)NC3CCN(Cc4ccccc4)CC3)cc2F)CC1` [Compound 5-92, tert-butyl 4-(4-(1-benzylpiperidin-4-ylcarbamoyl)-2-fluorophenoxy) piperidine-1-carboxylate], the EC50 was in the range of 1 to 10 µM.

The assay is the same for the next values; noted with them: Table 13, compounds of Table 6.
With `COc1ccc(CN2CCC(NC(=O)c3cc4cc(C(=O)N5CCN(Cc6ccc(S(C)(=O)=O)cc6)CC5)ccc4o3)CC2)cc1` [Compound 6-94, N-(1-(4-methoxybenzyl)piperidin-4-yl)-5-(4-(4-(methylsulfonyl)benzyl)piperazine-1-carbonyl) benzofuran-2-carboxamide], the half-maximal effective concentration (EC50) was 0.1 to 1 µM.

`N#Cc1ccc(CN2CCC(NC(=O)c3cc4cc(C(=O)N5CCN(Cc6ccc(S(=O)(=O)C7CC7)cc6)CC5)ccc4o3)CC2)cc1` [Compound 6-104, N-(1-(4-cyanobenzyl)piperidin-4-yl)-5-(4-(4-(cyclopropylsulfonyl)benzyI)piperazine-1-carbonyl) benzofuran-2-carboxamide] showed an EC50 below 0.1 µM.

Take `CS(=O)(=O)c1ccc(CN2CCN(C(=O)c3ccc4oc(C(=O)NC5CCN(Cc6ccc(-n7cccn7)cc6)CC5)cc4c3)CC2)cc1` [Compound 6-148, N-(1-(4-(1H-pyrazol-1-yl)benzyl)piperidin-4-yl)-5-(4-(4-(methylsulfonyl)benzyl)piperazine-1-carbonyl) benzofuran-2-carboxamide]: the EC50 was below 0.1 µM.

For the compound `N#Cc1ccc(CN2CCC(NC(=O)c3cc4cc(CN5CCC(Oc6ccc(C#N)cc6)CC5)ccc4o3)CC2)cc1` [Compound 6-14, N-(1-(4-cyanobenzyl)piperidin-4-yl)-5-((4-(4-cyanophenoxy)piperidin-1-yl)methyl)benzofuran-2-carboxamide], the half-maximal effective concentration (EC50) is below 0.1 µM.

Compound `N#Cc1ccc(CN2CCC(NC(=O)c3cc4cc(C(=O)N5CCC(S(=O)(=O)c6ccc(F)cc6)CC5)ccc4o3)CC2)cc1` [Compound 6-122, N-(1-(4-cyanobenzyl)piperidin-4-yl)-5-(4-(4-fluorophenylsulfonyl)piperidine-1-carbonyl) benzofuran-2-carboxamide] registered an EC50 of 0.1 to 1 µM.

For `N#Cc1ccc(CN2CCC(NC(=O)c3cc4cc(NC(=O)c5ccc(N6CCCC6)cc5)ccc4o3)CC2)cc1` [Compound 6-68, N-(1-(4-cyanobenzyl)piperidin-4-yl)-5-(4-(pyrrolidin-1-yl)benzamido)benzofuran-2-carboxamide], the concentration for a half-maximal effect (EC50) is 0.1 to 1 µM.

`N#Cc1ccc(CN2CCC(NC(=O)c3cc4cc(C(=O)N5CCN(Cc6ccc(OC(F)(F)F)cc6)CC5)ccc4o3)CC2)cc1` [Compound 6-81, N-(1-(4-cyanobenzyl)piperidin-4-yl)-5-(4-(4-(trifluoromethoxy)benzyl)piperazine-1-carbonyl) benzofuran-2-carboxamide] registered an EC50 below 0.1 µM.

Staying with this assay, now noted: Table 14, compounds of Table 7.
The compound `Cc1nc2cc(OC3CCN(C(=O)c4ccc(C(=O)Nc5ccc(Oc6ccc(C#N)cc6)nc5)cn4)CC3)ccc2s1` [Compound 7-25, N-(6-(4-cyanophenoxy)pyridin-3-yl)-6-(4-(2-methylbenzo[d]thiazol-5-yloxy)piperidine-1-carbonyl)nicotinamide] gave an EC50 below 1 µM.

Turning to `N#Cc1ccc(O[C@H]2CC[C@@H](NC(=O)c3ccc(C(=O)N4CCC(C(=O)c5ccc(N6CCCC6)cc5)CC4)nc3)CC2)cc1` [Compound 7-112, N-((cis)-4-(4-cyanophenoxy)cyclohexyl)-6-(4-(4-(pyrrolidin-1-yl)benzoyl)piperidine-1-carbonyl)nicotinamide], the EC50 is below 1 µM.
